Relative viability data for 11 cell lines are collected here from the supplement of paper PMC10307832.

Holding throughout (assay): relative viability (nuclei count vs DMSO), 5 days (fraction); higher = more cells survive
Compound in the experiment “Carboplatin + Tozasertib”: C1CC(C1)(C(=O)O)C(=O)O.[NH2-].[NH2-].[Pt+2] [Carboplatin] + Cc1cc(Nc2cc(N3CCN(C)CC3)nc(Sc3ccc(NC(=O)C4CC4)cc3)n2)n[nH]1 [Tozasertib] (partner 0.1 µM)
A digest of the protocol: (§1)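 For relative viability, nuclei counts in treated wells were divided by those in vehicle wells. Lung cancer cell lines had been pin-tool dosed in 1536-well plates the day after seeding and cultured for 5 days, then fixed and stained in one step (final 0.05% Triton X-100, 1% formaldehyde, 1 ug/ml Hoechst) and imaged at 4×. Doses were one drug alone or a fixed anchor-drug dose plus five library-drug doses (not always all listed) in √10 steps, and values are duplicate-plate medians.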

Compound in the experiment “MLN4924 + Phenformin”: NS(=O)(=O)OC[C@@H]1C[C@@H](n2ccc3c(N[C@H]4CCc5ccccc54)ncnc32)C[C@@H]1O [MLN4924] + N=C(N)NC(=N)NCCc1ccccc1 [Phenformin] (partner 250 µM)
A digest of the protocol:
as §1

Compound in the experiment “Carboplatin + Vorinostat”: C1CC(C1)(C(=O)O)C(=O)O.[NH2-].[NH2-].[Pt+2] [Carboplatin] + O=C(CCCCCCC(=O)Nc1ccccc1)NO [Vorinostat] (partner 1 µM)
A digest of the protocol:
as §1

Compound in the experiment “GSK126 + Linsitinib”: CC[C@H](C)N1C=C(C2=C(C=C(C=C21)C3=CN=C(C=C3)N4CCNCC4)C(=O)NCC5=C(C=C(NC5=O)C)C)C [GSK126] + C[C@]1(O)C[C@@H](c2nc(-c3ccc4ccc(-c5ccccc5)nc4c3)c3c(N)nccn32)C1 [Linsitinib] (partner 1 µM)
A digest of the protocol: as §1

On to NCI-H522, for which the relative viability was found to be 0.63 with Carboplatin + Tozasertib (first compound 0.08 µM); 0.604 in the experiment with Carboplatin + Tozasertib (first compound 0.253 µM); 0.547 with Carboplatin + Tozasertib (first compound 0.8 µM); 0.525 with Carboplatin + Tozasertib (first compound 2.53 µM); 0.528 with Carboplatin + Tozasertib (first compound 8 µM); 0.642 with MLN4924 + Phenformin (first compound 0.04 µM). The relative viability turned out to be 0.676 with MLN4924 + Phenformin (first compound 0.1265 µM); 0.454 in the experiment with MLN4924 + Phenformin (first compound 0.4 µM); 0.424 in the experiment with MLN4924 + Phenformin (first compound 1.265 µM); 0.293 with MLN4924 + Phenformin (first compound 4 µM); 0.882 in the experiment with Carboplatin + Vorinostat (first compound 0.08 µM); 0.904 with Carboplatin + Vorinostat (first compound 0.253 µM). For the same cell line, the relative viability is 0.944 in the experiment with Carboplatin + Vorinostat (first compound 0.8 µM), 0.968 with Carboplatin + Vorinostat (first compound 2.53 µM) and 0.669 in the experiment with Carboplatin + Vorinostat (first compound 8 µM).

Consider NCI-H1299, for which the relative viability came out at 0.986 with GSK126 + Linsitinib (first compound 0.08 µM); 0.998 with GSK126 + Linsitinib (first compound 0.253 µM); 1 with GSK126 + Linsitinib (first compound 0.8 µM); 0.93 in the experiment with GSK126 + Linsitinib (first compound 2.53 µM); 0.964 with GSK126 + Linsitinib (first compound 8 µM).

In the case of NCI-H1563, the relative viability was determined as 0.832 with MLN4924 + Phenformin (first compound 0.04 µM); 0.87 in the experiment with MLN4924 + Phenformin (first compound 0.1265 µM); 0.666 with MLN4924 + Phenformin (first compound 0.4 µM); 0.498 with MLN4924 + Phenformin (first compound 1.265 µM); 0.57 in the experiment with MLN4924 + Phenformin (first compound 4 µM); 1.2 with GSK126 + Linsitinib (first compound 0.08 µM). Besides, the relative viability was 1.11 in the experiment with GSK126 + Linsitinib (first compound 0.253 µM), 1.16 in the experiment with GSK126 + Linsitinib (first compound 0.8 µM), 1.12 with GSK126 + Linsitinib (first compound 2.53 µM) and 1.26 in the experiment with GSK126 + Linsitinib (first compound 8 µM).

Take NCI-H1623: the relative viability with Carboplatin + Tozasertib (first compound 0.08 µM) was 0.445; with Carboplatin + Tozasertib (first compound 0.253 µM) it was 0.446; with Carboplatin + Tozasertib (first compound 0.8 µM), 0.484; with Carboplatin + Tozasertib (first compound 2.53 µM) it was 0.449; with Carboplatin + Tozasertib (first compound 8 µM) it was 0.402; with MLN4924 + Phenformin (first compound 0.04 µM) it was 0.503. Besides, the relative viability in the experiment with MLN4924 + Phenformin (first compound 0.1265 µM) came out at 0.479; with MLN4924 + Phenformin (first compound 0.4 µM), 0.39; with MLN4924 + Phenformin (first compound 1.265 µM), 0.274; with MLN4924 + Phenformin (first compound 4 µM), 0.248.

For the cell line NCI-H1648, the relative viability in the experiment with Carboplatin + Tozasertib (first compound 0.08 µM) was determined as 0.708; with Carboplatin + Tozasertib (first compound 0.253 µM), 0.421; with Carboplatin + Tozasertib (first compound 0.8 µM), 0.319; with Carboplatin + Tozasertib (first compound 8 µM), 0.456; in the experiment with Carboplatin + Vorinostat (first compound 0.08 µM) it was 0.527; in the experiment with Carboplatin + Vorinostat (first compound 0.253 µM), 0.544. Also, the relative viability with Carboplatin + Vorinostat (first compound 0.8 µM) is 0.434; in the experiment with Carboplatin + Vorinostat (first compound 2.53 µM), 0.351; with Carboplatin + Vorinostat (first compound 8 µM), 0.357.

Turning to NCI-H1650, the relative viability with Carboplatin + Tozasertib (first compound 0.08 µM) was found to be 0.473; in the experiment with Carboplatin + Tozasertib (first compound 0.253 µM) it was 0.342; with Carboplatin + Tozasertib (first compound 0.8 µM), 0.427; with Carboplatin + Tozasertib (first compound 2.53 µM) it was 0.348; with Carboplatin + Tozasertib (first compound 8 µM), 0.373; in the experiment with MLN4924 + Phenformin (first compound 0.04 µM), 0.398. The relative viability was 0.339 in the experiment with MLN4924 + Phenformin (first compound 0.1265 µM); 0.231 in the experiment with MLN4924 + Phenformin (first compound 0.4 µM); 0.146 in the experiment with MLN4924 + Phenformin (first compound 1.265 µM); 0.198 in the experiment with MLN4924 + Phenformin (first compound 4 µM); 0.64 in the experiment with Carboplatin + Vorinostat (first compound 0.08 µM); 0.584 in the experiment with Carboplatin + Vorinostat (first compound 0.253 µM). Further, the relative viability with Carboplatin + Vorinostat (first compound 0.8 µM) amounted to 0.599; in the experiment with Carboplatin + Vorinostat (first compound 2.53 µM), 0.459; in the experiment with Carboplatin + Vorinostat (first compound 8 µM) it was 0.271.

With NCI-H1703, the relative viability with GSK126 + Linsitinib (first compound 0.08 µM) amounted to 1.25; with GSK126 + Linsitinib (first compound 0.253 µM) it was 0.708; with GSK126 + Linsitinib (first compound 0.8 µM), 0.852; with GSK126 + Linsitinib (first compound 2.53 µM), 0.82; with GSK126 + Linsitinib (first compound 8 µM), 1.5.

As to NCI-H1792, the relative viability turned out to be 0.403 with MLN4924 + Phenformin (first compound 0.04 µM); 0.324 in the experiment with MLN4924 + Phenformin (first compound 0.1265 µM); 0.725 with MLN4924 + Phenformin (first compound 0.4 µM); 0.258 with MLN4924 + Phenformin (first compound 1.265 µM); 0.217 in the experiment with MLN4924 + Phenformin (first compound 4 µM); 0.561 with GSK126 + Linsitinib (first compound 0.08 µM). In addition, the relative viability with GSK126 + Linsitinib (first compound 0.253 µM) was found to be 0.639; in the experiment with GSK126 + Linsitinib (first compound 0.8 µM), 0.51; with GSK126 + Linsitinib (first compound 2.53 µM), 0.571; with GSK126 + Linsitinib (first compound 8 µM), 0.498.

Regarding NCI-H2170, the relative viability amounted to 0.732 in the experiment with Carboplatin + Tozasertib (first compound 0.08 µM); 0.687 with Carboplatin + Tozasertib (first compound 0.253 µM); 0.642 with Carboplatin + Tozasertib (first compound 0.8 µM); 0.71 with Carboplatin + Tozasertib (first compound 2.53 µM); 0.535 in the experiment with Carboplatin + Tozasertib (first compound 8 µM); 0.359 with MLN4924 + Phenformin (first compound 0.04 µM). The relative viability with MLN4924 + Phenformin (first compound 0.1265 µM) was 0.305; with MLN4924 + Phenformin (first compound 0.4 µM), 0.214; with MLN4924 + Phenformin (first compound 1.265 µM), 0.183; with MLN4924 + Phenformin (first compound 4 µM) it was 0.185; with Carboplatin + Vorinostat (first compound 0.08 µM), 0.94; with Carboplatin + Vorinostat (first compound 0.253 µM) it was 0.811. Also, the results for the relative viability with Carboplatin + Vorinostat (first compound 0.8 µM), with Carboplatin + Vorinostat (first compound 2.53 µM) and with Carboplatin + Vorinostat (first compound 8 µM) were 0.89, 0.737 and 0.413, respectively.

As for NCI-H2342, the relative viability with Carboplatin + Tozasertib (first compound 0.08 µM) turned out to be 0.555; in the experiment with Carboplatin + Tozasertib (first compound 0.253 µM) it was 0.529; with Carboplatin + Tozasertib (first compound 0.8 µM), 0.502; with Carboplatin + Tozasertib (first compound 2.53 µM), 0.406; with Carboplatin + Tozasertib (first compound 8 µM) it was 0.547; with MLN4924 + Phenformin (first compound 0.04 µM) it was 0.705. For the same cell line, the relative viability with MLN4924 + Phenformin (first compound 0.1265 µM) is 0.661; with MLN4924 + Phenformin (first compound 0.4 µM), 0.613; with MLN4924 + Phenformin (first compound 1.265 µM), 0.551; with MLN4924 + Phenformin (first compound 4 µM), 0.501; with Carboplatin + Vorinostat (first compound 0.08 µM), 0.751; in the experiment with Carboplatin + Vorinostat (first compound 0.253 µM), 0.788. Further, the results for the relative viability with Carboplatin + Vorinostat (first compound 0.8 µM), in the experiment with Carboplatin + Vorinostat (first compound 2.53 µM) and with Carboplatin + Vorinostat (first compound 8 µM) were 0.828, 0.865 and 0.744, respectively.

On to SW 900, for which the relative viability with Carboplatin + Tozasertib (first compound 0.08 µM) worked out at 0.682; with Carboplatin + Tozasertib (first compound 0.253 µM), 0.479; with Carboplatin + Tozasertib (first compound 0.8 µM), 0.56; in the experiment with Carboplatin + Tozasertib (first compound 2.53 µM), 0.399; with Carboplatin + Tozasertib (first compound 8 µM) it was 0.314; in the experiment with MLN4924 + Phenformin (first compound 0.04 µM), 0.205. In addition, the relative viability in the experiment with MLN4924 + Phenformin (first compound 0.1265 µM) is 0.483; with MLN4924 + Phenformin (first compound 0.4 µM), 0.258; with MLN4924 + Phenformin (first compound 1.265 µM), 0.15; with MLN4924 + Phenformin (first compound 4 µM) it was 0.128; in the experiment with Carboplatin + Vorinostat (first compound 0.08 µM) it was 0.476; with Carboplatin + Vorinostat (first compound 0.253 µM), 0.522. Moreover, the results for the relative viability in the experiment with Carboplatin + Vorinostat (first compound 0.8 µM), in the experiment with Carboplatin + Vorinostat (first compound 2.53 µM) and in the experiment with Carboplatin + Vorinostat (first compound 8 µM) were 0.501, 0.528 and 0.519, respectively.
